Measurements taken from patent US20070269570A1, “FLAVONOID SUGAR ADDITION PRODUCTS, METHOD FOR MANUFACTURE AND USE THEREOF” (priority 2006, published 2007).

Legend:
Format in all cases: in vivo, human
[1] = Triangle test of taste modification of theobromine solution; conditions: for % of panellists who detected a difference: eight panelists; for taste intensity: theobromine reference bitterness 5.0; for taste: compared with theobromine reference
Source text: To investigate the influence of taste modification of (−)-catechin-8-C-β-D-glucopyranoside on theobromine in comparison to the aglycons (+)-catechin and (−)-epicatechin as well as further C-glycosides like apigenin-8-C-β-D-glucopyranoside (vitexin) and apigenin-6-C-β-D-glucopyranoside (isovitexin), theobromine (3 mmol/L) was spiked with different concentrations of (−)-catechin-8-C-β-D-glucopyranoside, (+)-catechin, (−)-epicatechin as well as apigenin-8-C-β-D-glucopyranoside (vitexin) and apigenin-6-C-β-D-glucopyranoside (isovitexin).

[2] = Sensory tasting in alkalized cocoa powder drink; conditions: for sensory evaluation of bitterness versus control: 50 ppm added (ppm refer to 1 kg of water), 8 persons
Description: The modified product of example 6 was further compared to alkalized cocoa powder (5 g/200 ml)+50 ppm Epicat-6-C-Glc (ppm refer to 1 kg of water).
The modified product of example 6 was further compared to alkalized cocoa powder (5 g/200 ml)+50 ppm Cat-6,8-C-di-Glc (ppm refer to 1 kg of water).
The examples were repeated with the catechin and epicatechin galactosides and the same sensory results were obtained.

[3] = Sensory tasting against pure theobromine; conditions: ca. 10 ppm added to 600 ppm theobromine
Source text: Theobromine (600 ppm)+ca. 10 ppm 8-C-glucosylated catechin.

[4] = Sensory tasting in astringent dark chocolate; conditions: 77 mg of 7.8% solution in propylene glycol per 20 g dark chocolate
Description: 77 mg of a solution of catechin-8-C-glucoside dissolved in propylene glycol (7.8%) was added to 20 g of molten dark chocolate with strong astringent taste characteristics. After solidification, the chocolate was tasted against a non-treated reference chocolate.
Food ingredients were prepared starting from green tea extract (5 g) or grape seed extract (5 g) by reaction with glucose (4 g) and 3% K2C03 in 100 ml of water. The reaction was done at 80° C. for exactly 20 min. The resulting flavour reaction mix was freeze-dried to obtain a dark red-brown mass which was then added to astringent tasting chocolate at various levels. In a first screening sensory tasting, the optimum level of addition was identified as 300 ppm.
Ingredients prepared from grape seed extract and tea extract in such a manner when added to dark chocolate at 330 ppm decreased the perceived sensory perception of astringency in the dark chocolate.

[5] = Sensory tasting against grape seed extract; conditions: ca. 10 ppm added to 2000 ppm grape seed extract
[6] = Sensory tasting in non-alkalized cocoa powder drink; conditions: 50 ppm added

Structure (SMILES)	% of panellists who detected a difference ([1]; 22.2 μmol/L added)	taste intensity ([1]; 22.2 μmol/L added)	% of panellists who detected a difference ([1]; 222/L μmol/L added)	taste intensity ([1]; 222/L μmol/L added)	sensory evaluation of bitterness versus control [2]	taste ([1]; 2.2 μmol/L added)	% of panellists who detected a difference ([1]; 2.2 μmol/L added)	taste intensity ([1]; 2.2 μmol/L added)	taste ([1]; 22.2 μmol/L added)	taste ([1]; 222/L μmol/L added)	other results
O=c1cc(-c2ccc(O)cc2)oc2c([C@@H]3O[C@H](CO)[C@@H](O)[C@H](O)[C@H]3O)c(O)cc(O)c12 [vitexin, apigenin-8-C-β-D-glucopyranoside]	0%	5.0	50%	4.5	–	–	–	–	–	–	% of panellists who detected a difference ([1]; 2 μmol/L added): 0%; taste intensity ([1]; 2 μmol/L added): 5.0
OC[C@H]1O[C@@H](c2c(O)cc3c(c2O)C[C@@H](O)[C@H](c2ccc(O)c(O)c2)O3)[C@H](O)[C@@H](O)[C@@H]1O [Cat-6-C-Glc, (−)-catechin-6-C-β-D-glucopyranoside]	–	–	–	–	lower maximum bitterness intensity than in the control sample, a flat bitterness profile and a “softer bitterness quality	–	–	–	–	–	–
Oc1cc(O)c2c(c1)OC(c1ccc(O)c(O)c1)C(O)C2 (single isomer, unassigned; (-)) [(−)-epicatechin]	50%	5.0	50%	bitterness (4.0)	–	bitterness	0%	5.0	more cocoa like	more cocoa like	–
OC[C@H]1O[C@@H](c2c(O)cc3c(c2O)C[C@@H](O)[C@@H](c2ccc(O)c(O)c2)O3)[C@H](O)[C@@H](O)[C@@H]1O [Epicat-6-C-Glc, (−)-epicatechin-6-C-β-D-glucopyranoside]	–	–	–	–	lower maximum bitterness intensity than control, a flatter bitterness profile and a “softer” bitterness quality	–	–	–	–	–	–
O=c1cc(-c2ccc(O)cc2)oc2cc(O)c([C@@H]3O[C@H](CO)[C@@H](O)[C@H](O)[C@H]3O)c(O)c12 [isovitexin, apigenin-6-C-β-D-glucopyranoside]	0%	5.0	50%	4.5	–	bitterness	0%	5.0	bitterness	bitterness	–
Oc1cc(O)c2c(c1)O[C@H](c1ccc(O)c(O)c1)[C@@H](O)C2 [(+)-catechin]	50%	5.0	50%	bitterness (4.0)	–	bitterness	0%	5.0	more cocoa like	more cocoa like	–
OCC1OC(c2c(O)c3c(c(C4OC(CO)C(O)C(O)C4O)c2O)OC(c2ccc(O)c(O)c2)C(O)C3)C(O)C(O)C1O (single isomer, unassigned; (-)) [Cat-6,8-C-di-Glc, (−)-cat-echin-6-C-8-C-β-D-diglucopyranoside]	–	–	–	–	lower maximum bitterness intensity than control, a flatter bitterness profile and a “softer” bitterness quality	–	–	–	–	–	–
OC[C@H]1O[C@@H](c2c(O)cc(O)c3c2O[C@@H](c2ccc(O)c(O)c2)[C@H](O)C3)[C@H](O)[C@@H](O)[C@@H]1O [(−)-catechin-8-C-β-D-glucopyranoside]	50%	less bitter (3.5)	100%	less bitter (1.0)	–	softer, more	10%	(4.5)	softer, more pleasant	softer, more pleasant	bitterness intensity compared to pure theobromine [3]: did not a perceive a decrease in bitterness intensity; timing of bitterness perception compared to pure theobromine [3]: delay in bitterness perception; astringency versus non-treated reference chocolate [4]: lower; bitterness versus non-treated reference chocolate [4]: remained unchanged; tasters who noticed a "smoothing out" effect [4]: 4 of 5; astringency versus reference of grape seed extract [5]: decrease in astringency; taste perception versus reference without addition ([2]; 50 ppm added, 5 persons): less bitter and less astringent; taste perception versus reference without addition [6]: milder and less astringent
